What was measured:
Assay type in all cases: cell-based
[1] = tested on: Chikungunya virus (CHIKV); assay: microbe, parasite or virus in culture; conditions: Chikungunya virus, Vero, 48 h, read-out: Percent viral inhibition CHKV
dengue virus (DENV) = assay: microbe, parasite or virus in culture; conditions: Dengue virus, Vero, 120 h, read-out: Percent viral inhibition DENY
Marburg virus (MARV) = assay: organism not typed; conditions: Vero, 72 h, read-out: Percent viral inhibition MARV

| Structure (SMILES) | inhibition at 1 µM [1] | inhibition at 1 µM (dengue virus (DENV)) | inhibition at 1 µM (Marburg virus (MARV)) |
| --- | --- | --- | --- |
| O=C(O)CC1CCN(Cc2cc(Oc3cnc(N4CCN5CCC4C5)nc3)nc(-c3cc(Cl)cc(Cl)c3)c2)CC1 (stereo not drawn) [Example 334, 2-(1-((2-((2-(1,4-diazabicyclo[3.2.1]octan-4-yl)pyrimidin-5-yl)oxy)-6-(3,5-dichlorophenyl)pyridin-4-yl)methyl)piperidin-4-yl)acetic acid] | 29.6% | 20.8% | 41.4% |
| O=C(O)C1[C@H]2CCN(Cc3cc(Oc4cnc(N5CCN6CCC5C6)nc4)nc(-c4cc(Cl)cc(Cl)c4)c3)CC[C@@H]12 (stereo partly drawn) [Example 337, (1R,7S,8r)-4-((2-((2-(1,4-diazabicyclo[3.2.1]octan-4-yl)pyrimidin-5-yl)oxy)-6-(3,5-dichlorophenyl)pyridin-4-yl)methyl)-4-azabicyclo[5.1.0] octane-8-carboxylic acid] | 15.9% | 0% | 37.6% |
| FC1CCN(Cc2cc(Oc3cnc(N4CCN5CCC4C5)nc3)nc(-c3cc(Cl)cc(Cl)c3)c2)CC1 (stereo not drawn) [Example 338, 4-(5-((6-(3,5-dichlorophenyl)-4-((4-fluoropiperidin-1-yl)methyl)pyridin-2-yl)oxy)pyrimidin-2-yl)-1,4-diazabicyclo[3.2.1]octane] | 19.3% | 55.4% | 12.2% |
| CN1CCN(c2cnc(Oc3cc(CN4CCC(CC(=O)O)CC4)cc(-c4cc(Cl)cc(Cl)c4)n3)cn2)CC1 [Example 339, 2-(1-((2-(3,5-dichlorophenyl)-6-((5-(4-methylpiperazin-1-yl)pyrazin-2-yl)oxy)pyridin-4-yl)methyl)piperidin-4-yl)acetic acid] | 23.6% | 0% | 52.1% |
| CC(CCN1CCN(c2cnc(Oc3cc(CN4CCC(CCO)CC4)cc(-c4cc(Cl)cc(Cl)c4)n3)cn2)CC1)C(=O)O (stereo not drawn) [Example 341, 4-(4-(5-((6-(3,5-dichlorophenyl)-4-((4-(2-hydroxyethyl)piperidin-1-yl)methyl)pyridin-2-yl)oxy)pyrazin-2-yl)piperazin-1-yl)-2-methylbutanoic acid] | 29.2% | 31.2% | 50.5% |
| CC(C)(O)CN1CCN(c2cnc(Oc3cc(CN4CCC(CC(=O)O)CC4)cc(-c4cc(Cl)cc(Cl)c4)n3)cn2)CC1 [Example 343, 2-(1-((2-(3,5-dichlorophenyl)-6-((5-(4-(2-hydroxy-2-methylpropyl)piperazin-1-yl)pyrazin-2-yl)oxy)pyridin-4-yl)methyl)piperidin-4-yl)acetic acid] | 35.7% | 28.6% | 51% |
| O=C(O)CC1CCN(Cc2cc(Oc3ccc(N4CCN5CCC4C5)nn3)nc(-c3cc(Cl)cc(Cl)c3)c2)CC1 (stereo not drawn) [Example 344, 2-(1-((2-((6-(1,4-diazabicyclo[3.2.1]octan-4-yl)pyridazin-3-yl)oxy)-6-(3,5-dichlorophenyl)pyridin-4-yl)methyl)piperidin-4-yl)acetic acid] | 26.6% | 77.9% | 43.5% |
| CCN1CCCN(c2cnc(Oc3cc(CN4CCC(CC(=O)O)CC4)cc(-c4cc(Cl)cc(Cl)c4)n3)cn2)CC1 [Example 345, 2-(1-((2-(3,5-dichlorophenyl)-6-((5-(4-ethyl-1,4-diazepan-1-yl)pyrazin-2-yl)oxy)pyridin-4-yl)methyl)piperidin-4-yl)acetic acid] | 22.1% | 44% | 57% |
| CN1C[C@@H]2C[C@H]1CN2c1cnc(Oc2cc(CN3CCC(CC(=O)O)CC3)cc(-c3cc(Cl)cc(Cl)c3)n2)cn1 [Example 346, 2-(1-((2-(3,5-dichlorophenyl)-6-((5-((1S,4S)-5-methyl-2,5-diazabicyclo[2.2.1]heptan-2-yl)pyrazin-2-yl)oxy)pyridin-4-yl)methyl)piperidin-4-yl)acetic acid] | 9.36% | 54.6% | 56.8% |
| CC(C)N1CCN(c2cnc(Oc3cc(CN4CCC(CC(=O)O)CC4)cc(-c4cc(Cl)cc(Cl)c4)n3)cn2)CC1 [Example 347, 2-(1-((2-(3,5-dichlorophenyl)-6-((5-(4-isopropylpiperazin-1-yl)pyrazin-2-yl)oxy)pyridin-4-yl)methyl)piperidin-4-yl)acetic acid] | 24.9% | 56.8% | 57.7% |
| O=C(O)CC1CCN(Cc2cc(Oc3cnc(N4CCN5CCC4C5)cn3)nc(-c3cc(Cl)cc(Cl)c3)c2)CC1 (stereo not drawn) [Example 348, 2-(1-((2-((5-(1,4-diazabicyclo[3.2.1]octan-4-yl)pyrazin-2-yl)oxy)-6-(3,5-dichlorophenyl)pyridin-4-yl)methyl)piperidin-4-yl)acetic acid] | 35.8% | 55.8% | 46.6% |
| CC(O)CCN1CCN(c2cnc(Oc3cc(CN4CCC(CC(=O)O)CC4)cc(-c4cc(Cl)cc(Cl)c4)n3)cn2)CC1 (stereo not drawn) [Example 349, 2-(1-((2-(3,5-dichlorophenyl)-6-((5-(4-(3-hydroxybutyl)piperazin-1-yl)pyrazin-2-yl)oxy)pyridin-4-yl)methyl)piperidin-4-yl)acetic acid] | 26.2% | 57.6% | 64.5% |
| CN1CCN(c2cnc(Oc3cc(CN4CCC(CCO)CC4)cc(-c4cc(Cl)cc(Cl)c4)n3)cn2)CC1 [Example 350, 2-(1-((2-(3,5-dichlorophenyl)-6-((5-(4-methylpiperazin-1-yl)pyrazin-2-yl)oxy)pyridin-4-yl)methyl)piperidin-4-yl)ethanol] | 0% | 22.8% | 29.9% |
| CC(CC1CCN(Cc2cc(Oc3cnc(N4CCCN(C)CC4)cn3)nc(-c3cc(Cl)cc(Cl)c3)c2)CC1)C(=O)O (stereo not drawn) [Example 351, 3-(1-((2-(3,5-dichlorophenyl)-6-((5-(4-methyl-1,4-diazepan-1-yl)pyrazin-2-yl)oxy)pyridin-4-yl)methyl)piperidin-4-yl)-2-methylpropanoic acid] | 22.7% | 42.8% | 60.4% |
| CN1C2CC1CN(c1cnc(Oc3cc(CN4CCC(CC(=O)O)CC4)cc(-c4cc(Cl)cc(Cl)c4)n3)cn1)C2 [Example 352, 2-(1-((2-(3,5-dichlorophenyl)-6-((5-(6-methyl-3,6-diazabicyclo[3.1.l]heptan-3-yl)pyrazin-2-yl)oxy)pyridin-4-yl)methyl)piperidin-4-yl)acetic acid] | 31% | 13.1% | 47.9% |
| CN1CCN(c2cnc(Oc3cc(CN4CCC(OC5(C(=O)O)CC5)CC4)cc(-c4cc(Cl)cc(Cl)c4)n3)cn2)CC1 [Example 353, 1-((1-((2-(3,5-dichlorophenyl)-6-((5-(4-methylpiperazin-1-yl)pyrazin-2-yl)oxy)pyridin-4-yl)methyl)piperidin-4-yl)oxy)cyclopropanecarboxylic acid] | 16.6% | 51.3% | 35.4% |
| CS(=O)(=O)CCCN1CCN(c2cnc(Oc3cc(CN4CCC(CC(=O)O)CC4)cc(-c4cc(Cl)cc(Cl)c4)n3)cn2)CC1 [Example 354, 2-(1-((2-(3,5-dichlorophenyl)-6-((5-(4-(3-(methylsulfonyl)propyl)piperazin-1-yl)pyrazin-2-yl)oxy)pyridin-4-yl)methyl)piperidin-4-yl)acetic acid] | 17.2% | 40.8% | 45.2% |
| CCN1CCCN(c2ccc(Oc3cc(CN4CCC(CC(=O)O)CC4)cc(-c4cc(Cl)cc(Cl)c4)n3)nn2)CC1 [Example 355, 2-(1-((2-(3,5-dichlorophenyl)-6-((6-(4-ethyl-1,4-diazepan-1-yl)pyridazin-3-yl)oxy)pyridin-4-yl)methyl)piperidin-4-yl)acetic acid] | 22% | 30.2% | 52.4% |
| CN1CCCN(c2ccc(Oc3cc(CN4CCC(CC(=O)O)CC4)cc(-c4cc(Cl)cc(Cl)c4)n3)nn2)CC1 [Example 356, 2-(1-((2-(3,5-dichlorophenyl)-6-((6-(4-methyl-1,4-diazepan-1-yl)pyridazin-3-yl)oxy)pyridin-4-yl)methyl)piperidin-4-yl)acetic acid] | 30.8% | 49.3% | 54.3% |
| CN1C[C@@H]2C[C@H]1CN2c1ccc(Oc2cc(CN3CCC(CC(=O)O)CC3)cc(-c3cc(Cl)cc(Cl)c3)n2)nn1 [Example 357, 2-(1-((2-(3,5-dichlorophenyl)-6-((6-((1S,4S)-5-methyl-2,5-diazabicyclo[2.2.1]heptan-2-yl)pyridazin-3-yl)oxy)pyridin-4-yl)methyl)piperidin-4-yl)acetic acid] | 38.6% | 61.2% | 100% |
| CCN1CCN(c2ccc(Oc3cc(CN4CCC(CC(=O)O)CC4)cc(-c4cc(Cl)cc(Cl)c4)n3)nn2)CC1 [Example 358, 2-(1-((2-(3,5-dichlorophenyl)-6-((6-(4-ethylpiperazin-1-yl)pyridazin-3-yl)oxy)pyridin-4-yl)methyl)piperidin-4-yl)acetic acid] | 20.4% | 67.1% | 49% |
| CN1CCN(c2ccc(Oc3cc(CN4CCC(CC(=O)O)CC4)cc(-c4cc(Cl)cc(Cl)c4)n3)nn2)CC1 [Example 359, 2-(1-((2-(3,5-dichlorophenyl)-6-((6-(4-methylpiperazin-1-yl)pyridazin-3-yl)oxy)pyridin-4-yl)methyl)piperidin-4-yl)acetic acid] | 28.9% | 45.3% | 62% |
| CN1CCN(c2ccc(Oc3cc(CN4CCC(CCO)CC4)cc(-c4cc(Cl)cc(Cl)c4)n3)nn2)CC1 [Example 360, 2-(1-((2-(3,5-dichlorophenyl)-6-((6-(4-methylpiperazin-1-yl)pyridazin-3-yl)oxy)pyridin-4-yl)methyl)piperidin-4-yl)ethanol] | 0% | 2.83% | 3.44% |
